Measurements taken from US8420600B2 (Vallinex, Inc., priority 2002, dated 2013).
“And” between values parts separate entries of the source, which are not always exact repeats. Identical values can stand only once.

Experiments:
[1] = tested on: subjects with osteoarthritis of the knee; experiment: Osteoarthritis of the Knee Safety Study: VAS pain at the target knee; type: in vivo, human
Experimental: (§1) The study was designed to include 16 evaluation subjects. […] Sixteen subjects completed the study.
(§2) Patients were treated randomly and in double-blind fashion in four treatment cohorts, with each cohort having a progressively longer interval between the intra-articular administration of study medication and subsequent total knee replacement (2, 4, 7, and 14 days). […] Gross and microscopic pathology analysis was completed for each treatment cohort before the next treatment cohort was treated.
(§3) Each subject had 3 study visits: a Screening Day (Day −7 to −1), the Treatment Day (Day 0), and a Post-Treatment Day (scheduled for Day +2, +4, +7, or +14). On the Treatment Day the subject was randomized, pre-treatment evaluation was performed. The patients were brought into the procedure room, and a VAS pain score was taken (0 mm—no pain, 100 mm—extreme pain). Once the patient had marked his or her pain on the card, he/she was prepped for knee cannulation. Once the cannula was placed, the patient received by intra-articular infiltration, 3 mg/kg (maximum dose of 200 mg) of 2% lignocaine into the knee scheduled to be replaced.
VAS pain scores as well as verbal reports were taken immediately following administration, as well as prior to knee replacement surgery. No subjects discontinued from the study due to adverse events. […]

[2] = tested on: subjects with osteoarthritis of the knee; experiment: Osteoarthritis of the Knee Safety Study: safety and tolerability of intra-articular capsaicin; type: in vivo, human
Experimental: The primary objective of the study was to evaluate the safety and tolerability of intra-articular capsaicin, when co-administered with intra-articular local anesthetic, compared to placebo, in subjects with end-stage osteoarthritis of the knee, already scheduled to receive knee replacements.
as §1, §2, §3
VAS pain scores as well as verbal reports were taken immediately following administration, as well as prior to knee replacement surgery. No subjects discontinued from the study due to adverse events.
On the Post-Treatment Day, study evaluation was performed followed by the scheduled knee replacement, with intra-operative bone and soft tissue biopsies performed for subsequent examination. […] This therefore left the 3 placebo and 9 active patients from the 4 day, 7 day, and 14 day cohorts.

[3] = tested on: subjects undergoing transpositional osteotomy (bunionectomy); experiment: Bunionectomy Efficacy Study: VAS pain score and rescue medication; type: in vivo, human; conditions: for VAS pain score (Table 4), mean +/− SEM: 1000 μg into the wound prior to closure, n = 11
Experimental: The primary efficacy endpoint was the proportion of subjects in each treatment group requiring opioid analgesia in the first 24 hours post-operatively. The proportions were compared amongst treatment groups using the Cochran-Haenszel test. Secondary efficacy end points included: i) proportion of subjects in each treatment group requiring opioid analgesia in the first 36 hour period post-operatively (Similarly, the proportions were compared amongst treatment groups using the Cochran-Haenszel test); ii) proportion of subjects in each treatment group requiring opioid analgesia in the 10 day period post-operatively (Similarly, the proportions were compared amongst treatment groups using the Cochran-Haenszel test); iii) time to first usage of opioid analgesia in each treatment group (a survival analysis approach will be used: the product-limit (Kaplan-Meier) method will be applied to time to first usage of opioid analgesia. The median time to first usage of opioid analgesia will be estimated in both treatment groups. Pairwise comparisons will be performed to test for equality of the survival curves between the 2 treatment groups using both the log-rank and the Wilcoxon test); iv) total usage of analgesia in each treatment group (the total usage of analgesia will be compared by an analysis of variance with treatment and center as independent variables. A pairwise comparison will be performed between the treatment groups); and v) VAS assessment of pain at the site of operation in each treatment group (The VAS score at each time point will be compared by an analysis of variance with treatment and center as independent variables. A pairwise comparison will be performed between the treatment groups). […] The efficacy analysis was performed on the data obtained ten days postoperatively. The safety analysis was performed based on the safety data for the entire study, including the 6 week and 12 week follow-up periods. The blind was broken at the time the efficacy analysis was performed. However, the individual treatment assignment was available to the statistical analysis group only. All other personnel involved in the study, including the Investigator, study monitor and proprietary staff, remained blinded until the entire study was completed.
The study was designed to include 40 evaluation subjects. […] Each subject had six (6) study visits: a Screening Day (Day −28 to −1), an Operation Day (Day 0), and four (4) Follow-up visits (scheduled for Days 3, 10 and weeks 6 and 12).
On Operation Day (Day 0) the following was performed: a) Pre-operation: Prior to the initiation of an ankle block, inclusion/exclusion criteria assessment was performed. […] Immediately prior to wound closure, the Investigator slowly dripped the study medication (4 mL) from a syringe into the wound, ensuring even tissue exposure. The wound was then closed according to normal practices and procedures.
In the 24 hours following administration of study medication, vital signs (supine pulse rate and blood pressure) were recorded at 1, 2, 4 and 24 hours post administration. VAS assessment of pain at the operation site was performed at 1, 4, 8, 12 and 24 hours post administration. In those instances where VAS measurements coincide with blood sampling procedures, the VAS assessment was performed first. […] The quantity of each blood sample was 10 mL. Laboratory safety assessments, e.g., haematology, biochemistry, urinalysis were performed at 24 hours post administration. Adverse events were spontaneously reported by the subject and recorded. Rescue analgesia medication was provided to the subject if required (initially diclofenac 50 mg, repeated at 8 hourly intervals if necessary). When diclofenac was judged by the Investigator to provide inadequate pain relief then the subject was provided with alfentanil, 1 mg, repeated at 6 hourly intervals when necessary.

[4] = tested on: radiation induced hyperalgesia; conditions: systemically delivered, cited from earlier work

COc1cc(CNC(=O)CCCC/C=C/C(C)C)ccc1O [capsaicin, N-(4-hydroxy-3-methoxybenzyl)-8-methylnon-trans-6-enamide]
reduction of VAS pain score, prior to drug administration vs day of surgery ([1]; 9 active patients of the 4 day, 7 day and 14 day cohorts, 10, 100 and 300 μg pooled): 62±14% | treatment related indication of efficacy (VAS) ([1]; dose levels 10 μg, 100 μg and 300 μg): No clear treatment related indication of efficacy was seen | duration of post-administration (hyper) algesic pain ([2]; 300 μg dose group, individual subjects): 17 minutes and 25 minutes (2×) and 42 minutes | proprioception at the injected knee ([2]; any dose group, any time point): no discernable effect | average duration of post injection hyperalgesia ([2]; burning sensation, 100 and 300 μg dose groups): less than thirty minutes | erythema, edema or hemorrhage at the site of injection ([2]; in vivo): no treatment related signs | histopathological examination of soft tissue, cartilage and bone ([2]; in vivo): no treatment related effects on soft tissue, cartilage, or bone | laboratory safety parameters and vital signs ([2]; in vivo): no treatment related effects on laboratory safety parameters or vital signs | systemic side effects ([2]; in vivo): No treatment related systemic side effects were seen | leakage of study drug from the joint space ([2]; intra-articular, knee): low leakage | gross and microscopic pathology ([2]; knee tissue at replacement): normal | VAS pain score (Table 4), mean +/− SEM ([3]; 8 hr): 5.5 +/− 2.3 | VAS pain score (Table 4), mean +/− SEM ([3]; 12 hr): 8.2 +/− 3.8 | VAS pain score (Table 4), mean +/− SEM ([3]; 24 hr): 1.9 +/− 1.0 | VAS pain score (Table 4), mean +/− SEM ([3]; 48 hr): 5.9 +/− 2.5 | effect on opioid rescue ([3]; 1000 μg prior to wound closure): decreased opioid rescue | time at which a subject required rescue ([3]; 1000 μg prior to wound closure, individual subjects): 1 h and 4 h and 5 h and 8 h and 12 h | effect on radiation induced hyperalgesia ([4]; final doses of 25 mg/kg or less prior to ultra violet radiation): prevented radiation induced hyperalgesia | effect on pain threshold ([4]; final doses of 25 mg/kg or less): did not elevate the pain threshold above normal range
